Assay results reported in patent US10590105B2, “1,3-dihydroxy-phenyl derivatives useful as immunomodulators” (BRISTOL-MYERS SQUIBB COMPANY, priority 2016, dated 2020).

Target: PD-1/PD-L1 interaction (PD-1-Ig / PD-L1-His) (Homo sapiens (Human), UniProt Q9NZQ7)
Test: PD-1/PD-L1 Homogenous Time-Resolved Fluorescence (HTRF) binding assay
Conditions: PD-1/PD-L1 HTRF binding assay; value given as range class; read-out: Range or IC50
Source text: The ability of the compounds of formula (I) to bind to PD-L1 was investigated using a PD-1/PD-L1 Homogenous Time-Resolved Fluorescence (HTRF) binding assay.
Homogenous Time-Resolved Fluorescence (HTRF) Binding Assay.
The interaction of PD-1 and PD-L1 can be assessed using soluble, purified preparations of the extracellular domains of the two proteins. The PD-1 and PD-L1 protein extracellular domains were expressed as fusion proteins with detection tags, for PD-1, the tag was the Fc portion of Immunoglobulin (PD-1-Ig) and for PD-L1 it was the 6 histidine motif (PD-L1-His). All binding studies were performed in an HTRF assay buffer consisting of dPBS supplemented with 0.1% […] bovine serum albumin and 0.05% (v/v) Tween-20. For the h/PD-L1-His binding assay, inhibitors were pre-incubated with PD-L1-His (10 nM final) for 15 m in 4 μl of assay buffer, followed by addition of PD-1-Ig (20 nM final) in 1 μl of assay buffer and further incubation for 15 m. HTRF detection was achieved using europium crypate-labeled anti-Ig (1 nM final) and allophycocyanin (APC) labeled anti-His (20 nM final). Antibodies were diluted in HTRF detection buffer and 5 μl was dispensed on top of the binding reaction. The reaction mixture was allowed to equilibrate for 30 minutes and the resulting signal (665 nm/620 nm ratio) was obtained using an EnVision fluorometer. Additional binding assays were established between the human proteins PD-1-Ig/PD-L2-His (20 & 5 nM, respectively) and CD80-His/PD-L1-Ig (100 & 10 nM, respectively).
Recombinant Proteins. Human PD-1 (25-167) with a C-terminal human Fc domain of immunoglobulin G (Ig) epitope tag [hPD-1 (25-167)-3S-IG] and human PD-L1 (18-239) with a C-terminal His epitope tag [hPD-L1(18-239)-TVMV-His] were expressed in HEK293T cells and purified sequentially by ProteinA affinity chromatography and size exclusion chromatography. Human PD-L2-His and CD80-His was obtained through commercial sources.
Ranges are as follows: A=0.001 to 0.010 micromolar; B=0.011 to 0.150 micromolar; C=0.151 to 10 micromolar.

PD-1/PD-L1 interaction (PD-1-Ig / PD-L1-His), sequence (Q9NZQ7 other isoform, or with tags, fused parts or gaps): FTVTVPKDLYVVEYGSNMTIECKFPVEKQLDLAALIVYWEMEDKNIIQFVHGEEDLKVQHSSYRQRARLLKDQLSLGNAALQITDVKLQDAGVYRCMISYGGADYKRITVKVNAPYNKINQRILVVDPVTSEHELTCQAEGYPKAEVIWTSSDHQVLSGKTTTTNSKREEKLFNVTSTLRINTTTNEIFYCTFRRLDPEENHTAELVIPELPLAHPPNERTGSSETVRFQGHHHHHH

Compound | IC50
Cc1c(COc2cc(OCc3cncc(C#N)c3)c(CN[C@H](CO)C(=O)O)cc2Cl)cccc1-c1ccc2nccnc2c1 [Example 1034, (R)-2-((5-chloro-2-((5-cyanopyridin-3-yl)methoxy)-4-((2-methyl-3-(quinoxalin-6-yl)benzyl)oxy)benzyl)amino)-3-hydroxypropanoic acid] | 1 to 10 nM
Cc1c(COc2cc(OCc3cncc(C#N)c3)c(CN3CCCC[C@H]3C(=O)O)cc2Cl)cncc1-c1cccc(OCCCN2CC[C@@H](O)C2)c1C [Example 2005, (S)-1-(5-chloro-2-((5-cyanopyridin-3-yl)methoxy)-4-((5-(3-(3-((R)-3-hydroxypyrrolidin-1-yl)propoxy)-2-methylphenyl)-4-methylpyridin-3-yl)methoxy)benzyl)piperidine-2-carboxylic acid] | 1 to 10 nM
Cc1nn(CCCCN2CC[C@H](O)C2)c(C)c1-c1cccc(COc2cc(OCc3cncc(C#N)c3)c(CN[C@](C)(CO)C(=O)O)cc2Cl)c1C [Example 2003, (R)-2-((5-chloro-2-((5-cyanopyridin-3-yl)methoxy)-4-((3-(1-(4-((S)-3-hydroxypyrrolidin-1-yl)butyl)-3,5-dimethyl-1H-pyrazol-4-yl)-2-methylbenzyl)oxy)benzyl)amino)-3-hydroxy-2-methylpropanoic acid] | 151 to 10000 nM
Cc1c(COc2cc(OCc3cncc(C#N)c3)c(CO)cc2Cl)cccc1-c1cccc(OCCCN2CC[C@@H](O)C2)n1 [Example 1031, (R)-5-((4-chloro-2-(hydroxymethyl)-5-((3-(6-(3-(3-hydroxypyrrolidin-1-yl)propoxy)pyridin-2-yl)-2-methylbenzyl)oxy)phenoxy)methyl)nicotinonitrile] | 151 to 10000 nM
Cc1c(COc2cc(OCc3cncc(C#N)c3)c(CNC(C)(C)C(=O)O)cc2Cl)cccc1-c1ccc2occc2c1 [Example 1015, 2-((4-((3-(benzofuran-5-yl)-2-methylbenzyl)oxy)-5-chloro-2-((5-cyanopyridin-3-yl)methoxy)benzyl)amino)-2-methylpropanoic acid] | 11 to 150 nM
Cc1c(COc2cc(OCc3cncc(C#N)c3)c(C=O)cc2Cl)cccc1-c1ccc2oc(CCN3CC[C@@H](O)C3)nc2c1 [Example 1027, (R)-5-((4-chloro-2-formyl-5-((3-(2-(2-(3-hydroxypyrrolidin-1-yl)ethyl)benzo[d]oxazol-5-yl)-2-methylbenzyl)oxy)phenoxy)methyl)nicotinonitrile] | 151 to 10000 nM
Cc1c(OCCCN2CC[C@@H](O)C2)cccc1-c1ccnc(COc2cc(OCc3cncc(C#N)c3)c(CN[C@@](C)(CO)C(=O)O)cc2Cl)c1C [Example 2012, (S)-2-((5-chloro-2-((5-cyanopyridin-3-yl)methoxy)-4-((4-(3-(3-((R)-3-hydroxypyrrolidin-1-yl)propoxy)-2-methylphenyl)-3-methylpyridin-2-yl)methoxy)benzyl)amino)-3-hydroxy-2-methylpropanoic acid] | 1 to 10 nM
Cc1c(COc2cc(OCc3cncc(C#N)c3)c(CN[C@](C)(CO)C(=O)O)cc2Cl)cccc1-c1ccc2ocnc2c1 [Example 1012, (R)-2-((4-((3-(benzo[d]oxazol-5-yl)-2-methylbenzyl)oxy)-5-chloro-2-((5-cyanopyridin-3-yl)methoxy)benzyl)amino)-3-hydroxy-2-methylpropanoic acid] | 1 to 10 nM
CCC(CO)(CO)NCc1cc(Cl)c(OCc2nccc(-c3cccc(OCCCN4CCCCC4)c3C)c2C)cc1OCc1cncc(C#N)c1 [Example 2016, 5-((4-chloro-2-(((1-hydroxy-2-(hydroxymethyl)butan-2-yl)amino)methyl)-5-((3-methyl-4-(2-methyl-3-(3-(piperidin-1-yl)propoxy)phenyl)pyridin-2-yl)methoxy)phenoxy)methyl)nicotinonitrile] | 1 to 10 nM
Cc1c(COc2cc(OCc3cncc(C#N)c3)c(CN3CCCC[C@@H]3C(=O)O)cc2Cl)cccc1-c1ccc2nccnc2c1 [Example 1033, (R)-1-(5-chloro-2-((5-cyanopyridin-3-yl)methoxy)-4-((2-methyl-3-(quinoxalin-6-yl)benzyl)oxy)benzyl)piperidine-2-carboxylic acid] | 11 to 150 nM
Cc1c(COc2cc(OCc3cncc(C#N)c3)c(CN[C@](C)(CO)C(=O)O)cc2Cl)cccc1-c1ccc2ccncc2c1 [Example 1008, (R)-2-((5-chloro-2-((5-cyanopyridin-3-yl)methoxy)-4-((3-(isoquinolin-7-yl)-2-methylbenzyl)oxy)benzyl)amino)-3-hydroxy-2-methylpropanoic acid] | 11 to 150 nM
Cc1c(COc2cc(OCc3cncc(C#N)c3)c(CN[C@@H](CO)C(=O)O)cc2Cl)cccc1-c1cccn(CCCN2CC[C@@H](O)C2)c1=O [Example 1040, (S)-2-((5-chloro-2-((5-cyanopyridin-3-yl)methoxy)-4-((3-(1-(3-((R)-3-hydroxypyrrolidin-1-yl)propyl)-2-oxo-1,2-dihydropyridin-3-yl)-2-methylbenzyl)oxy)benzyl)amino)-3-hydroxypropanoic acid] | 151 to 10000 nM
Cc1nn(-c2cccc(COc3cc(OCc4cncc(C#N)c4)c(CNCCN4CC[C@@H](O)C4)cc3Cl)c2C)c(C)c1CNCCN1CC[C@@H](O)C1 [Example 2006, 5-((4-chloro-2-(((2-((R)-3-hydroxypyrrolidin-1-yl)ethyl)amino)methyl)-5-((3-(4-(((2-((R)-3-hydroxypyrrolidin-1-yl)ethyl)amino)methyl)-3,5-dimethyl-1H-pyrazol-1-yl)-2-methylbenzyl)oxy)phenoxy)methyl)nicotinonitrile] | 151 to 10000 nM
Cc1c(COc2cc(OCc3cncc(C#N)c3)c(CNC(C)(C)C(=O)O)cc2Cl)cccc1-c1ccc2ccoc2c1 [Example 1018, 2-((4-((3-(benzofuran-6-yl)-2-methylbenzyl)oxy)-5-chloro-2-((5-cyanopyridin-3-yl)methoxy)benzyl)amino)-2-methylpropanoic acid] | 11 to 150 nM
Cc1c(COc2cc(OCc3cncc(C#N)c3)c(CN[C@](C)(CO)C(=O)O)cc2Cl)cccc1-c1cnc2ccccc2c1 [Example 1002, (R)-2-((5-chloro-2-((5-cyanopyridin-3-yl)methoxy)-4-((2-methyl-3-(quinolin-3-yl)benzyl)oxy)benzyl)amino)-3-hydroxy-2-methylpropanoic acid] | 151 to 10000 nM
